Measurements reported in article PMC3634352 (Journal of the American Chemical Society, 2013).

Experiments:
S. aureus SgtB [1] = molecular target: T1, S. aureus SgtB (Staphylococcus aureus, UniProt Q99T05); assay type: binding; conditions: for drop in FP (probe displacement) when used instead of moenomycin: detergent controls
T1 sequence (Q99T05 1-269): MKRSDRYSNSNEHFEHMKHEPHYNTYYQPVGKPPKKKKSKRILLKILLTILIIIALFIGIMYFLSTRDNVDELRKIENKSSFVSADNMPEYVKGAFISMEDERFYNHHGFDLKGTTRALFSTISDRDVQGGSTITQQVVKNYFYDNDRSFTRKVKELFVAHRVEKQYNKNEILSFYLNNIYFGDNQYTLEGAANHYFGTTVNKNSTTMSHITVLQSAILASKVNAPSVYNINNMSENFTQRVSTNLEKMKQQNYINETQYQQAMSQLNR

[2] = background statement; cited from earlier work
S. aureus SgtB [3] = molecular target: T1, S. aureus SgtB; assay type: biochemical
E. coli PBP1b = E. coli PBP1b (Escherichia coli, UniProt P02919); assay: in vitro PGT inhibition; assay type: biochemical
E. coli PBP1b, sequence (P02919 whole entry): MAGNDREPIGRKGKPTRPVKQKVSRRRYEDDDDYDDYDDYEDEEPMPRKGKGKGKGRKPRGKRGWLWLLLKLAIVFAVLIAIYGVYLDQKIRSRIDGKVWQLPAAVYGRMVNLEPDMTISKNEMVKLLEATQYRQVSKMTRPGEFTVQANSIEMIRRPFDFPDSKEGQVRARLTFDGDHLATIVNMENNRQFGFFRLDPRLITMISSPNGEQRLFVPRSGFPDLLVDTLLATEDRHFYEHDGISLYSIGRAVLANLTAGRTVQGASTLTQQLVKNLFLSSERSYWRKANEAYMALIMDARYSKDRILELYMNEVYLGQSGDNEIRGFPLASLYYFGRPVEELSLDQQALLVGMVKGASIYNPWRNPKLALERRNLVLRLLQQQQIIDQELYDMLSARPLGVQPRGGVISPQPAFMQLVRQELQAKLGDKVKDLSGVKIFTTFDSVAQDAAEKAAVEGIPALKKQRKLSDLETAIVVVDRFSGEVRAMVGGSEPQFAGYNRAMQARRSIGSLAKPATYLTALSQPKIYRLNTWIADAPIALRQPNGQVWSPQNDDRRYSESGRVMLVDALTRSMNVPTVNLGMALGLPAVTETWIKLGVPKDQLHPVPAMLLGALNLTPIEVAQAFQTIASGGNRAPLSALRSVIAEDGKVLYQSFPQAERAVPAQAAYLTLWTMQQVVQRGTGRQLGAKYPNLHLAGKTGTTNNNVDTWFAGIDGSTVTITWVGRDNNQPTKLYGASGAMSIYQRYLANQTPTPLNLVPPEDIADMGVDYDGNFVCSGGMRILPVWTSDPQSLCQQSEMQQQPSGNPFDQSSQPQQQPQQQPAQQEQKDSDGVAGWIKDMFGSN

Compound | drop in FP (probe displacement) when used instead of moenomycin (S. aureus SgtB [1]) | Ki (S. aureus SgtB [1]; read-out: Ki, displacement of probe 2, probe 2 75 nM, S. aureus SgtB 0.2 μM) [nM] | oral bioavailability [2] | serum half life [2] | inhibition of enzyme (in words) (S. aureus SgtB [3]) | inhibition of enzyme (in words) (E. coli PBP1b)
tween-20 | no significant drop in FP |  |  |  |  | 
CCCCCCCCCCCCO[C@@H]1O[C@H](CO)[C@@H](O[C@H]2O[C@H](CO)[C@@H](O)[C@H](O)[C@H]2O)[C@H](O)[C@H]1O [dodecyl maltoside] | no significant drop in FP |  |  |  |  | 
moenomycin A [compound 1] |  | 640 | poor oral bioavailability | long serum half life | low-nanomolar inhibition | low-nanomolar inhibition
